Test results from US11111245B2, “Derivatives of N-cycloalkyl/heterocycloalkyl-4-(imidazo[1,2-a]pyridine)pyrimidin-2-amine as therapeutic agents” (Aucentra Therapeutics Pty Ltd, priority 2017, dated 2021).

Key:
CDK4/D1 = CDK4/D1 (Homo sapiens, UniProt P11802); assay: ADP Glo Kinase assay CDK4/D1; type: biochemical; conditions: CDK4D1; for remaining activity at 10 µM: compound at 10 μM, read-out: residual activity (%) at 10 μM CDK4D1; for Ki: read-out: CDK inhibition, Ki (μM) CDK4D1
How it was run: (§1)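 Other CDKs and further kinases were profiled externally by radiometric assay. In-house ADP Glo assays covered CDK4/D1 and CDK6/D3 (RB-CTF substrate, pH 7.5 Tris buffer with MgCl2, DTT, BSA) and CDK9/T1 (RBER-IRStide substrate), 40 min at 37° C.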

CDK6/D3 = CDK6/D3 (Homo sapiens, UniProt Q00534); assay: ADP Glo Kinase assay CDK6/D3; type: biochemical; conditions: CDK6D3; for remaining activity at 10 µM: compound at 10 μM, read-out: residual activity (%) at 10 μM CDK6D3; for Ki: read-out: CDK inhibition, Ki (μM) CDK6D3
Chain of CDK6/D3 (Q00534 whole entry): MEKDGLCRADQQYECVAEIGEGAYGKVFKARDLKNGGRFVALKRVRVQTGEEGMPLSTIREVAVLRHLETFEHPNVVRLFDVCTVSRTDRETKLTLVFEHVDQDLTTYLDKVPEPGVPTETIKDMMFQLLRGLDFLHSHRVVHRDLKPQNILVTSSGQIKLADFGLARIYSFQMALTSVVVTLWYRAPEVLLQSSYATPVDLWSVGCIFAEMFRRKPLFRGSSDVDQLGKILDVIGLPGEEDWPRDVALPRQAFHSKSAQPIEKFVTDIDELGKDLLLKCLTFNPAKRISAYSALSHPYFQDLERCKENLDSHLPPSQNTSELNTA
Chain of CDK6/D3 (P30281 whole entry partner): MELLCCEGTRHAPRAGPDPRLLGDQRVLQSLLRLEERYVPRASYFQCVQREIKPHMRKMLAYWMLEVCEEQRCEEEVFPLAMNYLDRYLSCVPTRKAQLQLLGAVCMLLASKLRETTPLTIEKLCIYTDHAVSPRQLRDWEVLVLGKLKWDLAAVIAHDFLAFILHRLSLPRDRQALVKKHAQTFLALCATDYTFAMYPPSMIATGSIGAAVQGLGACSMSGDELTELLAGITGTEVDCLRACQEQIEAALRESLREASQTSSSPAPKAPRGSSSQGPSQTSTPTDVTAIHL
Experimental: Eurofins Pharma Discovery or Reaction Biology Corporation Kinase Profiler services were used to measure inhibition of CDKs and other kinases by radiometric assay. Inhibition of CDK4/D1, CDK6/D3 and CDK9/T1 were also determined in-house using ADP Glo Kinase assays (Promega Corporation, Madison, USA). Briefly, the kinase reaction for CDK4/D1 and CDK6/D3 was performed with kinase reaction buffer ([…] Tris base pH 7.5, 20 mM MgCl2, 0.4 mM DTT), 0.1 mg/ml BSA and RB-CTF substrate (retinoblastoma protein 1 C-terminal fraction). For CDK9/CyclinT1, the kinase reaction was performed with standard assay buffer and Kinase Dilution Buffer and RBER-IRStide substrate. Serial dilutions of 1:3 were prepared for test compounds for 10 concentrations (from 10 μM to 0.5 nM). The kinase reactions were started by addition of ATP, incubated for 40 min at 37° C. and then stopped by adding 10 μL of ADP Glo reagent. After incubation at room temperature in the dark for 40 min, 20 μL of kinase detection reagent was added per well and incubated for 40 min. Luminescence was measured using an EnVision Multilabel plate reader (PerkinElmer, Buckinghamshire, UK). Positive and negative controls were performed in the presence and absence of CDK kinases, respectively. Half-maximal inhibition (IC50) values were calculated using a 4-parameter logistic non-linear regression model with Graphpad prism (Version 6.0). Apparent inhibition constants (Ki) values were calculated from Km (ATP) and IC50 values for the respective kinases.

CDK9/T1 = CDK9/T1 (Homo sapiens, UniProt P50750); assay: ADP Glo Kinase assay CDK9/T1; type: biochemical; conditions: CDK9T1; read-out: CDK inhibition, Ki (μM) CDK9T1
Chain of CDK9/T1 (P50750 whole entry): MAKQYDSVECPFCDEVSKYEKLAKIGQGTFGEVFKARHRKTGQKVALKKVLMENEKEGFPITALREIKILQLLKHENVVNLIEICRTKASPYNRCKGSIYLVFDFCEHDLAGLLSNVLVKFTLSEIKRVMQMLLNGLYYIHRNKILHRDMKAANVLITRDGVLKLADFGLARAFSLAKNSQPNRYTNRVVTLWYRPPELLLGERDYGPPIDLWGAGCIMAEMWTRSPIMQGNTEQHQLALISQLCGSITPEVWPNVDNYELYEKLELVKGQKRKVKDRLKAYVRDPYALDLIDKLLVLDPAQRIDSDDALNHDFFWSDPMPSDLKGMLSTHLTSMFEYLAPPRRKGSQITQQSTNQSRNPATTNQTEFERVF
Chain of CDK9/T1 (O60563 whole entry partner): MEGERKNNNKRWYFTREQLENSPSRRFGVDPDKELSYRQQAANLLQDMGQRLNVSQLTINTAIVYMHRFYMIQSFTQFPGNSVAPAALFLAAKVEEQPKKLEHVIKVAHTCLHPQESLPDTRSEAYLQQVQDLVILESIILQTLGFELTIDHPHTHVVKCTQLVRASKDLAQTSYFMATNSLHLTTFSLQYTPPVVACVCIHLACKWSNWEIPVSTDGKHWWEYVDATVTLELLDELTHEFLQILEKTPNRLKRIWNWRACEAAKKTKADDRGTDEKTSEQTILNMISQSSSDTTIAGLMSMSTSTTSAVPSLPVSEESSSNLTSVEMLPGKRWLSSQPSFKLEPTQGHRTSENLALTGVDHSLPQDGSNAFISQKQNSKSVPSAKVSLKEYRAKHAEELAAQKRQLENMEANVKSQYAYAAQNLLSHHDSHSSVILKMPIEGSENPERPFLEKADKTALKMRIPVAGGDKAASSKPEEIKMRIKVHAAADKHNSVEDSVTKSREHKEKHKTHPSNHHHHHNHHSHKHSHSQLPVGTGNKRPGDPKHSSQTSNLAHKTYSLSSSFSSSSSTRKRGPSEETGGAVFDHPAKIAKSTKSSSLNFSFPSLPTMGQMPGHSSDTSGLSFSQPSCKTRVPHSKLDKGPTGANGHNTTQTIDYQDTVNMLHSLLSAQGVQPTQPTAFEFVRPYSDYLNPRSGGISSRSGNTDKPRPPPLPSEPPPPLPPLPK
How it was run: as §1

CDKs and other kinases [1] = target: T1, CDKs and other kinases (Homo sapiens, UniProt P06493); assay: Radiometric kinase assay (Eurofins Pharma Discovery or Reaction Biology Corporation Kinase Profiler); type: biochemical; conditions: CDK1B; for Ki: read-out: CDK inhibition, Ki (μM) CDK1B; for remaining activity at 10 µM: compound at 10 μM, read-out: residual activity (%) at 10 μM CDK1B
T1 construct: other: CDK1B; residual activity (%) at 10 μM CDK1B; compound at 10 μM
T1 sequence (P06493 whole entry): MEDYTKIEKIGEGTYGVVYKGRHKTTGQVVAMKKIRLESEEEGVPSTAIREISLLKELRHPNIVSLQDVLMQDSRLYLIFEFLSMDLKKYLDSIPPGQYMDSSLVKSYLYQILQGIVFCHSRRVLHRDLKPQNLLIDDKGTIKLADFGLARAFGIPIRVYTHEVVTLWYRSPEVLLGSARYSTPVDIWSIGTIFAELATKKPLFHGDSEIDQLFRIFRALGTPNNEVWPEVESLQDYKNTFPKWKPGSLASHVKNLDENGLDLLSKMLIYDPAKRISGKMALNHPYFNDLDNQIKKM
How it was run: as §1

CDKs and other kinases [2] = target: T2, CDKs and other kinases (Homo sapiens, UniProt P24941); assay: as above; type: biochemical; conditions: CDK2A; for Ki: read-out: CDK inhibition, Ki (μM) CDK2A; for remaining activity at 10 µM: compound at 10 μM, read-out: residual activity (%) at 10 μM CDK2A
T2 construct: other: CDK2A; residual activity (%) at 10 μM CDK2A; compound at 10 μM
How it was run: as §1

CDKs and other kinases [3] = target: T3, CDKs and other kinases (Homo sapiens, UniProt P50613); assay: as above; type: biochemical; conditions: CDK7H; for Ki: read-out: CDK inhibition, Ki (μM) CDK7H; for remaining activity at 10 µM: compound at 10 μM, read-out: residual activity (%) at 10 μM CDK7H
T3 construct: other: CDK7H; residual activity (%) at 10 μM CDK7H; compound at 10 μM
T3 sequence (P50613 whole entry): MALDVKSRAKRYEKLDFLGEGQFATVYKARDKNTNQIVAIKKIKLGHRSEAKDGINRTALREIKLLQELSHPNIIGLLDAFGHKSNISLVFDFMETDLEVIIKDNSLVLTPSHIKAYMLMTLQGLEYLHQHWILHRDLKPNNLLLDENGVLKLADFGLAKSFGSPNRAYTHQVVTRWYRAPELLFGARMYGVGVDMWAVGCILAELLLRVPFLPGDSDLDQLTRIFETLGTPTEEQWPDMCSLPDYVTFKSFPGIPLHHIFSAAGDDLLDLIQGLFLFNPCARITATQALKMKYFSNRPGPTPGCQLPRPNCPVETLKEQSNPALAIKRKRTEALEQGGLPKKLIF
How it was run: as §1

leukemia cell lines = assay: Resazurin cell viability assay on leukemia cell lines (72 h growth inhibition, GI50); type: cell-based; conditions: Homo sapiens, MV4-11 cells
How it was run: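 Standard published viability protocols apply here, MTT-based for solid tumour cells and resazurin-based for leukaemia cells, with 50% growth inhibition concentrations derived through non-linear regression.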

Chain of CDK4/D1 (P11802 whole entry): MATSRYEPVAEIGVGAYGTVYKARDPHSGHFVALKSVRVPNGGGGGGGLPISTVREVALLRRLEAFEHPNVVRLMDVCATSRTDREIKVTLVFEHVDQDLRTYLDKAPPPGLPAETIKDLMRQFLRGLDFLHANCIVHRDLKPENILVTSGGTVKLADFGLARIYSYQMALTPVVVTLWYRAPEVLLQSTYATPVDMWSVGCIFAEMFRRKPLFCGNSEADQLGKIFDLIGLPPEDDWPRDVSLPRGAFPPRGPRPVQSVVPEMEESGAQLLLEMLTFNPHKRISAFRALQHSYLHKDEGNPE
Chain of CDK4/D1 (P24385 whole entry partner): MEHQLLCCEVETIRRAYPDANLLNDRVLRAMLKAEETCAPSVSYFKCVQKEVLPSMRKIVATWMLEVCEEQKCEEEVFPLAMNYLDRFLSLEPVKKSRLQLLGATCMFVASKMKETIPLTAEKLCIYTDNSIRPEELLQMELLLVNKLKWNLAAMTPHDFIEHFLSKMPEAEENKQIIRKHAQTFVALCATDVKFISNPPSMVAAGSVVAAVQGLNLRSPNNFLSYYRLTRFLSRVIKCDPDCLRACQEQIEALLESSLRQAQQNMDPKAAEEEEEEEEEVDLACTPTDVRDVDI

| SMILES | remaining activity at 10 µM (CDK4/D1) | remaining activity at 10 µM (CDK6/D3) | Ki (CDK9/T1) | Ki (CDKs and other kinases [1]) | Ki (CDKs and other kinases [2]) | Ki (CDKs and other kinases [3]) | GI50 (leukemia cell lines) | remaining activity at 10 µM (CDKs and other kinases [1]) | remaining activity at 10 µM (CDKs and other kinases [2]) | remaining activity at 10 µM (CDKs and other kinases [3]) | Ki (CDK4/D1) | Ki (CDK6/D3) | residual activity at 10 µM (CDK4/D1) | residual activity at 10 µM (CDKs and other kinases [2]) |
| --- | --- | --- | --- | --- | --- | --- | --- | --- | --- | --- | --- | --- | --- | --- |
| Cc1cnc(N[C@H]2CC[C@H](O)CC2)nc1-c1cnc2ccc(Nc3cncnc3)cn12 [Compound 108, (1r,4r)-4-((5-Methyl-4-(6-(pyrimidin-5-ylamino)imidazo [1,2-a]pyridin-3-yl)pyrimidin-2-yl)amino)cyclohexan-1-ol] | 70% | 68% | 0.018 µM | 0.16 µM | 0.035 µM | 4.76 µM | > 10 µM |  |  |  |  |  |  |  |
| Cc1cnc(N[C@H]2CC[C@H](O)CC2)nc1-c1cnc2ccc(Nc3cccnc3)cn12 [Compound 106, (1r,4r)-4-((5-Methyl-4-(6-(pyridin-3-ylamino)imidazo [1,2-a]pyridin-3-yl)pyrimidin-2-yl)amino)cyclohexan-1-ol] | 43% | 71% | 0.042 µM |  |  |  | 0.851 ± 0.048 µM | 5% | 2% | 25% |  |  |  |  |
| COc1ccc(-c2ccc3ncc(-c4nc(N[C@H]5CC[C@H](N)CC5)ncc4Cl)n3c2)cn1 [Compound 81, (1r,4r)-N^1-(5-Chloro-4-(6-(6-methoxypyridin-3-yl)imidazo[1,2-a]pyridin-3-yl)pyrimidin-2-yl)cyclohexane-1,4-diamine] |  |  | 0.008 µM | 2.01 µM | 0.51 µM | 0.21 µM | 0.025 ± 0.011 µM |  |  |  | 1.58 µM | 1.01 µM |  |  |
| Cc1cnc(N[C@H]2CC[C@H](N)CC2)nc1-c1cnc2ccc(Nc3ccccc3)cn12 [Compound 31, (1r,4r)-N^1-(5-Methyl-4-(6-(phenylamino)imidazo[1,2-a]pyridin-3-yl)pyrimidin-2-yl)cyclohexane-1,4-diamine] |  | 11% | 0.018 µM |  |  |  | 0.005 ± 0.002 µM | 32% |  | 13% |  |  | 45% | 145% |
| N[C@H]1CC[C@H](Nc2ncc(Cl)c(-c3cnc4ccc(-c5ccccc5)cn34)n2)CC1 [Compound 79, (1r,4r)-N^1-(5-Chloro-4-(6-phenylimidazo[1,2-a]pyridin-3-yl)pyrimidin-2-yl)cyclohexane-1,4-diamine] | 13% | 80% | 0.004 µM | 0.27 µM | 0.071 µM | 0.079 µM | 0.008 ± 0.001 µM |  |  |  |  |  |  |  |
| COc1ccc(-c2ccc3ncc(-c4nc(N[C@H]5CC[C@H](N)CC5)ncc4Cl)n3c2)cc1 [Compound 82, (1r,4r)-N^1-(5-Chloro-4-(6-(4-methoxyphenyl)imidazo [1,2-a]pyridin-3-yl)pyrimidin-2-yl)cyclohexane-1,4-diamine] | 20% | 99% | 0.018 µM | 0.82 µM | 0.22 µM | 0.15 µM | 0.054 ± 0.015 µM |  |  |  |  |  |  |  |
| Cc1cnc(N[C@H]2CC[C@H](N)CC2)nc1-c1cnc2ccccn12 [Compound 8, (1r,4r)-N^1-(4-(Imidazo[1,2-a]pyridin-3-yl)-5-methylpyrimidin-2-yl)cyclohexane-1,4-diamine] | 11% | 34% | 0.035 µM | 3.81 µM | 0.35 µM | 0.38 µM | 0.066 ± 0.007 µM |  |  |  |  |  |  |  |
| Cc1cnc(N[C@H]2CC[C@H](O)CC2)nc1-c1cnc2ccc(-c3ccccc3)cn12 [Compound 105, (1r,4r)-4-((5-Methyl-4-(6-phenylimidazo[1,2-a]pyridin-3-yl)pyrimidin-2-yl)amino)cyclohexan-1-ol] | 93% | 94% | 0.188 µM |  |  |  | 0.748 ± 0.063 µM | 7% | 3% | 15% |  |  |  |  |
| Cc1cnc(N[C@H]2CC[C@H](N)CC2)nc1-c1cnc2ccc(-c3ccc(N4CCOCC4)nc3)cn12 [Compound 61, (1r,4r)-N^1-(5-Methyl-4-(6-(6-morpholinopyridin-3-yl)imidazo[1,2-a]pyridin-3-yl)pyrimidin-2-yl)cyclohexane-1,4-diamine] | 17% | 89% | 0.49 µM |  |  |  | 0.083 ± 0.035 µM | 79% | 63% | 37% |  |  |  |  |
| Fc1cnc(NC2CCN(CC3CC3)CC2)nc1-c1cnc2ccccn12 [Compound 22, N-(1-(Cyclopropylmethyl)piperidin-4-yl)-5-fluoro-4-(imidazo[1,2-a]pyridin-3-yl)pyrimidin-2-amine] | 2% | 42% | 0.095 µM | 1.06 µM | 1.12 µM | 0.437 µM | 0.041 ± 0.012 µM |  |  |  |  |  |  |  |
| Cc1cnc(NC2CCC(N(C)C)CC2)nc1-c1cnc2ccc(Nc3cccnc3)cn12 (stereo not drawn) [Compound 98, N^1,N^1-Dimethyl-N^4-(5-Methyl-4-(6-(pyridin-3-ylamino)imidazo[1,2-a]pyridin-3-yl)pyrimidin-2-yl)cyclohexane-1,4-diamine] |  |  | 0.004 µM | 1.5 µM | 0.31 µM | 1.67 µM | 0.153 ± 0.021 µM |  |  |  | 0.78 µM | 0.53 µM |  |  |
| Cc1cnc(N[C@]23C[C@@]4(C)C[C@](C)(C[C@](O)(C4)C2)C3)nc1-c1cnc2ccc(Nc3cncnc3)cn12 [Compound 102, (1s,3R,5S,7r)-3,5-Dimethyl-7-((5-methyl-4-(6-(pyrimidin-5-ylamino)imidazo[1,2-a]pyridin-3-yl)pyrimidin-2-yl)amino)adamantan-1-ol] | 73% | 100% | 0.109 µM |  |  |  | 0.059 ± 0.019 µM | 36% | 22% | 85% |  |  |  |  |
| Cc1cnc(N[C@H]2CC[C@H](N)CC2)nc1-c1cnc2ccc(NC(=O)Cc3ccccc3)cn12 [Compound 73, N-(3-(2-(((1r,4r)-4-Aminocyclohexyl)amino)-5-methylpyrimidin-4-yl)imidazo[1,2-a]pyridin-6-yl)-2-phenylacetamide] | 53% | 49% | 0.469 µM |  |  |  | 0.752 ± 0.055 µM | 75% | 62% | 63% |  |  |  |  |
| Cc1cnc(N[C@H]2CC[C@H](N)CC2)nc1-c1cnc2cc(C(F)(F)F)c(Br)cn12 [Compound 114, (1r,4r)-N^1-(4-(6-Bromo-7-(trifluoromethyl)imidazo [1,2-a]pyridin-3-yl)-5-methylpyrimidin-2-yl) cyclohexane-1,4-diamine] | 8% | 40% | 0.005 µM |  |  | 0.075 µM | 0.026 ± 0.009 µM | 53% | 28% |  |  |  |  |  |
| N[C@H]1CC[C@H](Nc2ncc(F)c(-c3cnc4cc(Cl)ccn34)n2)CC1 [Compound 43, (1r,4r)-N^1-(4-(7-Chloroimidazo[1,2-a]pyridin-3-yl)-5-fluoropyrimidin-2-yl)cyclohexane-1,4-diamine] | 0% | 2% | 0.008 µM |  |  |  | 0.004 ± 0.001 µM | 4% | 1% | 3% |  |  |  |  |
